US20240025906A1 (NEURON23, INC., priority 2022, published 2024)
Read-outs that look alike come from different tables or passages of the source.

Assays:
[1] = system: JAK1/TYK2 pSTAT5 (Tyr694/699) in THP-1 cell line; assay: IFNa-stimulated JAK1/TYK2 pSTAT5 (Tyr694/699) inhibition cellular assay, AlphaLISA; type: cell-based; conditions: Homo sapiens, THP-1 cells, AlphaLISA (Assay B)
Procedure, shortened: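 The readout is AlphaLISA signal at 615 nm for phospho-STAT5 in THP-1 lysates after IFNa stimulation (added at 100 ng/mL, 30 min, 37 °C). Cells had compound for 1 h beforehand across eight 6-fold concentrations up to 10000 nM final. IC50s are 4PL fits with bottom and Hill slope constrained.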

TYK2 JH2 = biological target: T1, TYK2 JH2 (Homo sapiens, UniProt P29597); assay: TYK2 JH2 binding assay (KINOMEscan KdELECT competitive binding); conditions: TYK2 JH2 domain
T1 construct: purchased DiscoverX (KINOMEscan KdELECT service); host or cells: E. coli BL21-derived (T7 phage display) or HEK-293
T1 sequence (P29597 589-875 limits assumed): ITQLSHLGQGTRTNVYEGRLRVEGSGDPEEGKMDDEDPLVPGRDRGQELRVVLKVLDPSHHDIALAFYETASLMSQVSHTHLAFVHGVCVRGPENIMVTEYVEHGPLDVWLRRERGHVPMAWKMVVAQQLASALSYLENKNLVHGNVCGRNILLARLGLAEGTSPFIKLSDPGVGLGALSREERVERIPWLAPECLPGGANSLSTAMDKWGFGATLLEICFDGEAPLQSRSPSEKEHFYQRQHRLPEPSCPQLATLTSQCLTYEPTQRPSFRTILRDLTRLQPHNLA
Procedure, shortened: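 Kd values come from qPCR measurement of kinase retained on an immobilized-ligand resin after 1 h room-temperature competition with compound in an 11-point, 3-fold series.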

[2] = IFNa-stimulated, read-out: Cellular_THP1_IFNa-pSTATS_TYK2
[3] = DiscoverX KINOMEscan KdELECT (Assay A), read-out: Biochemical TYK2_DiscoverX_JH2_BND_Kd
[4] = IFNa-stimulated, read-out: Cellular THP1_IFNa-pSTATS_IC50
[5] = KINOMEscan KdELECT (Assay A), read-out: Biochemical TYK2_JH2_Kd
[6] = KINOMEscan KdELECT (Assay A), read-out: Biochemical TYK2_DiscoverX_JH2_BND_Kd

Row | SMILES | IC50 [1, 2] [nM] | Kd (TYK2 JH2; [3]) [nM] | Kd (TYK2 JH2; [6]) [nM] | other results
1 | CNc1ncc(-c2nc3ccc(N4CC5CC(CN(C)C5)C4)cn3n2)c2cc(NC(=O)C3CC3)ncc12 [Example 502, N-(5-(6-(7-methyl-3,7-diazabicyclo[3.3.1]nonan-3-yl)-[1,2,4]triazolo[1,5-a]pyridin-2-yl)-8-(methylamino)-2,7-naphthyridin-3-yl)cyclopropanecarboxamide] | ≤ 500 | ≤ 100 |  | 
2 | CNc1ncc(-c2nc3ccc(OCc4ccccc4)cn3n2)c2cc(NC(=O)C3CC3)ncc12 [Example 500, N-(5-(6-(benzyloxy)-[1,2,4]triazolo[1,5-a]pyridin-2-yl)-8-(methylamino)-2,7-naphthyridin-3-yl)cyclopropanecarboxamide] | ≤ 500 | ≤ 100 |  | 
3 | CNc1ncc(-c2nc3ccc(N4CC5CN(C)CC(C4)O5)cn3n2)c2cc(NC(=O)[C@H]3C[C@H]3C)ncc12 [Example 560, (1S,2R)-2-methyl-N-(5-(6-(7-methyl-9-oxa-3,7-diazabicyclo[3.3.1]nonan-3-yl)-[1,2,4]triazolo[1,5-a]pyridin-2-yl)-8-(methylamino)-2,7-naphthyridin-3-yl)cyclopropane-1-carboxamide] | ≤ 500 | ≤ 100 |  | 
4 | CNc1ncc(-c2ccn(Cc3ccccc3)n2)c2cc(NC(=O)C3CC3)ncc12 [Example 131, N-(5-(1-benzyl-1H-pyrazol-3-yl)-8-(methylamino)-2,7-naphthyridin-3-yl)cyclopropanecarboxamide] |  |  |  | IC50 [1, 4]: > 500 nM; Kd (TYK2 JH2; [5]): ≤ 100 nM
5 | CNc1ncc(C#Cc2ccc(OC3CN(C(=O)C4CC4)C3)cc2)c2cc(NC(=O)C3CC3)ncc12 [Example 771, N-(5-((4-((1-(cyclopropanecarbonyl)azetidin-3-yl)oxy)phenyl)ethynyl)-8-(methylamino)-2,7-naphthyridin-3-yl)cyclopropanecarboxamide] | ≤ 500 |  | ≤ 100 | 
6 | CNc1ncc(-c2nc3cc(OC4CCC4C(C)(C)OC)ccc3o2)c2cc(NC(=O)C3CC3)ncc12 (centres unmarked) [Example 346, N-(5-(5-(2-(2-methoxypropan-2-yl)cyclobutoxy)benzo[d]oxazol-2-yl)-8-(methylamino)-2,7-naphthyridin-3-yl)cyclopropanecarboxamide] | ≤ 500 | ≤ 100 |  | 
7 | CC[C@@H]1C[C@H]1C(=O)Nc1cc2c(-c3nc4ccc(N5CCOCC5)cn4n3)cnc(NC)c2cn1 (single isomer, unassigned) [Example 586] | ≤ 500 | ≤ 100 |  | 
8 | CNc1ncc(-c2nc3ccccc3s2)c2cc(NC(=O)C3CC3)ncc12 [Example 145, N-(5-(benzo[d]thiazol-2-yl)-8-(methylamino)-2,7-naphthyridin-3-yl)cyclopropanecarboxamide] |  |  |  | IC50 [1, 4]: ≤ 500 nM; Kd (TYK2 JH2; [5]): ≤ 100 nM

Now from value to molecule, other results behind:

Row | IC50 [1, 2] [nM] | Kd (TYK2 JH2; [3]) [nM] | Kd (TYK2 JH2; [6]) [nM] | SMILES | other results
9 |  |  | ≤ 100 | CNc1ncc(-c2nc3ccc(N4CCOC(C(C)(C)O)C4)cn3n2)c2cc(NC(=O)C3CC3)ncc12 (centres unmarked) [Example 1026] | IC50 ([1]; IFNa-stimulated pSTAT5 (Tyr694/699), read-out: Cellular_THP1_IFNa-pSTATS_TYK2): ≤ 500 nM
10 | ≤ 500 |  | ≤ 100 | CNc1ncc(-c2ccc(-c3c(C)cnn3C)cc2)c2cc(NC(=O)C3CC3)ncc12 [Example 847, N-(5-(4-(1,4-dimethyl-1H-pyrazol-5-yl)phenyl)-8-(methylamino)-2,7-naphthyridin-3-yl)cyclopropanecarboxamide] | 
11 | ≤ 500 |  | ≤ 100 | CNc1ncc(C#Cc2ccc(OC)cn2)c2cc(NC(=O)[C@H]3C[C@H]3CF)ncc12 (single isomer, unassigned) [Example 822] | 
12 | > 500 |  | ≤ 100 | CNc1ncc(-c2ccn(CCOC)n2)c2cc(NC(=O)C3CC3)ncc12 [Example 852, N-(5-(1-(2-methoxyethyl)-1H-pyrazol-3-yl)-8-(methylamino)-2,7-naphthyridin-3-yl)cyclopropanecarboxamide] | 
13 | ≤ 500 |  | ≤ 100 | CNc1ncc(-c2nc3cc(N4CCO[C@H](C(F)F)C4)ccc3o2)c2cc(NC(=O)C3CC3)ncc12 (single isomer, unassigned) [Example 935] | 
